In the supplement of paper PMC10307832:

Key:
Experiment in all cases: relative viability (nuclei count vs DMSO), 5 days (fraction); higher = more cells survive
[1] = compound: OCc1c[nH]c2ccccc12 [Indole-3-carbinol] + CC(=O)Nc1cccc(-n2c(=O)n(C3CC3)c(=O)c3c(Nc4ccc(I)cc4F)n(C)c(=O)c(C)c32)c1 [Trametinib] (partner 0.02 µM)
Procedure, shortened: (§1)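 Dosing by pin tool came one day after lung cancer cell lines were seeded in 1536-well plates, using either one drug or a fixed anchor-drug dose plus five library-drug doses (not always all listed) in √10 steps. After 5 days, nuclei were counted on 4× images. Relative viability is treated-well nuclei count divided by vehicle-well nuclei count, and values are medians of duplicate plates.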

[2] = compound: OCc1c[nH]c2ccccc12 [Indole-3-carbinol] + CCNC(=O)c1noc(-c2cc(C(C)C)c(O)cc2O)c1-c1ccc(CN2CCOCC2)cc1 [Luminespib] (partner 0.01 µM)
Procedure, shortened: as §1

[3] = compound: OCc1c[nH]c2ccccc12 [Indole-3-carbinol] + COc1cccc2cc(-c3nc([C@H]4CC[C@H](C(=O)O)CC4)n4ncnc(N)c34)[nH]c12 [OSI-027] (partner 0.5 µM)
Procedure, shortened: as §1

[4] = compound: OCc1c[nH]c2ccccc12 [Indole-3-carbinol] + NC(=O)Nc1cc(-c2cccc(F)c2)sc1C(=O)N[C@H]1CCCNC1 [AZD7762] (partner 0.2 µM)
Procedure, shortened: as §1

[5] = compound: OCc1c[nH]c2ccccc12 [Indole-3-carbinol] + O=C(CCCCCCC(=O)Nc1ccccc1)NO [Vorinostat] (partner 1 µM)
Procedure, shortened: as §1

Cell Line	relative viability ([1]; first compound 0.253 µM)	relative viability ([1]; first compound 0.8 µM)	relative viability ([1]; first compound 2.53 µM)	relative viability ([1]; first compound 8 µM)	relative viability ([2]; first compound 0.253 µM)	relative viability ([2]; first compound 0.8 µM)	relative viability ([2]; first compound 2.53 µM)	relative viability ([2]; first compound 8 µM)	relative viability ([3]; first compound 0.253 µM)	relative viability ([3]; first compound 0.8 µM)	relative viability ([3]; first compound 2.53 µM)	relative viability ([3]; first compound 8 µM)	relative viability ([4]; first compound 0.253 µM)	relative viability ([4]; first compound 0.8 µM)	relative viability ([4]; first compound 2.53 µM)	relative viability ([4]; first compound 8 µM)	relative viability ([5]; first compound 0.253 µM)	relative viability ([5]; first compound 0.8 µM)	relative viability ([5]; first compound 2.53 µM)	relative viability ([5]; first compound 8 µM)
201T	0.704	0.705	0.697	0.692	1.03	1.01	1.07	1	0.895	0.765	0.748	0.718	0.623	0.591	0.614	0.725	1.1	0.88	0.978	0.927
A-427	0.713	0.717	0.76	0.685	0.932	0.96	0.908	0.895	0.372	0.444	0.566	0.537	0.72	0.763	0.908	0.778	0.836	0.818	0.86	0.825
ABC-1	–	–	–	–	–	0.696	0.803	0.509	0.381	0.511	0.565	0.565	0.72	0.974	0.618	0.833	1.59	1.05	1.23	1.1
BEN	0.995	1.14	1.03	0.936	0.346	0.188	0.377	0.379	0.275	0.271	0.33	0.331	0.635	0.706	0.732	0.784	0.512	0.512	0.63	0.631
CAL-12T	0.361	0.411	0.31	0.295	0.393	0.533	0.592	0.767	0.709	0.775	0.62	0.623	0.608	0.631	0.733	0.536	0.844	0.808	0.908	0.741
COR-L23	0.619	0.557	0.703	0.549	0.74	0.754	0.712	0.512	0.66	0.718	0.854	0.628	–	–	–	–	0.445	0.492	0.459	0.371
COR-L 105	0.407	0.405	0.473	0.428	0.758	0.723	0.651	0.656	0.751	0.586	0.73	0.785	–	–	–	–	0.916	0.847	0.73	0.862
ChaGo-K-1	0.91	0.905	0.832	0.885	0.649	0.658	0.576	0.557	0.56	0.543	0.605	0.567	1	0.853	0.932	0.869	0.792	0.729	0.76	0.73
EKVX	0.298	0.344	0.297	0.313	0.972	0.884	0.908	0.848	0.719	0.74	0.731	0.633	0.759	0.752	0.744	0.633	0.745	0.631	0.942	0.697
EMC-BAC-2	0.789	0.918	0.879	0.849	1.2	1.23	1.09	1.06	0.32	0.356	0.386	0.359	1.15	1.17	1.05	1.11	0.423	0.444	0.421	0.447
EPLC-272H	0.293	0.268	0.296	0.275	0.267	0.23	0.377	0.345	0.252	0.299	0.333	0.218	0.26	0.236	0.18	0.214	0.265	0.534	0.409	0.523
H3255	0.515	0.643	0.57	0.589	0.875	0.9	0.847	0.857	0.518	0.625	0.543	0.545	0.892	0.755	0.911	0.747	0.753	0.811	0.955	0.778
HARA	0.673	0.834	0.818	0.652	0.616	0.576	0.675	0.55	0.572	0.436	0.597	0.556	0.355	0.239	0.313	0.463	0.515	0.627	0.505	0.511
HCC-15	0.414	0.458	0.391	0.395	0.529	0.247	0.266	0.225	0.681	0.79	0.676	0.701	1.31	1.14	1.38	1.26	0.909	0.929	0.963	0.789
HCC-44	1.05	1.13	1.09	1.04	1.04	0.812	1.1	0.942	0.488	0.412	0.484	0.525	1.03	1.03	1	0.967	1.15	1.16	1.12	1.03
HCC-78	0.717	0.644	0.793	0.77	–	–	–	–	0.363	0.359	0.39	0.346	0.623	0.608	0.643	0.696	0.508	0.533	0.443	0.452
HCC-366	0.358	0.322	0.422	0.304	–	–	–	–	0.954	0.777	0.898	0.881	0.265	0.242	0.355	0.258	0.355	0.331	0.351	0.281
HCC-827	0.516	0.542	0.505	0.533	0.579	0.622	0.67	0.644	0.751	0.659	0.723	0.808	0.228	0.192	0.213	0.265	0.767	0.903	0.896	0.839
HOP-62	0.348	0.373	0.358	0.32	0.911	0.927	0.937	0.831	0.802	0.796	0.791	0.789	0.65	0.61	0.631	0.607	0.674	0.534	0.714	0.582

Cell Line	relative viability ([1]; first compound 0.253 µM)	relative viability ([1]; first compound 0.8 µM)	relative viability ([1]; first compound 2.53 µM)	relative viability ([1]; first compound 8 µM)	relative viability ([2]; first compound 0.253 µM)	relative viability ([2]; first compound 0.8 µM)	relative viability ([2]; first compound 2.53 µM)	relative viability ([2]; first compound 8 µM)	relative viability ([3]; first compound 0.253 µM)	relative viability ([3]; first compound 0.8 µM)	relative viability ([3]; first compound 2.53 µM)	relative viability ([3]; first compound 8 µM)	relative viability ([4]; first compound 0.253 µM)	relative viability ([4]; first compound 0.8 µM)	relative viability ([4]; first compound 2.53 µM)	relative viability ([4]; first compound 8 µM)	relative viability ([5]; first compound 0.253 µM)	relative viability ([5]; first compound 0.8 µM)	relative viability ([5]; first compound 2.53 µM)	relative viability ([5]; first compound 8 µM)
IA-LM	–	–	–	–	–	–	–	–	–	–	–	–	–	–	–	–	1.08	1.03	1.11	0.96
LC-2-ad	0.893	0.879	0.897	0.869	1.13	1.15	1.26	0.953	0.888	0.776	0.826	0.787	0.865	0.873	0.828	0.82	0.765	0.742	0.696	0.662
LCLC-97TM1	0.215	0.215	0.178	0.23	0.823	0.935	0.859	0.865	0.381	0.527	0.386	0.668	0.39	0.297	0.236	0.234	0.858	1.01	0.818	0.646
LCLC-103H	0.701	0.614	0.651	0.571	0.873	0.939	0.901	0.811	0.452	0.513	0.428	0.431	0.802	0.786	0.86	0.81	0.894	0.736	0.829	0.706
LK-2	0.674	0.538	0.812	0.732	0.214	0.203	0.229	0.181	0.198	0.145	0.189	0.215	0.454	0.363	0.324	0.539	0.193	0.295	0.333	0.448
NCI-H520	0.702	0.575	0.741	0.772	0.188	0.178	0.219	0.211	0.25	0.189	0.258	0.274	–	–	–	–	0.707	0.7	0.87	0.692
NCI-H661	0.526	0.564	0.606	0.58	0.922	0.952	0.965	0.895	0.644	0.725	0.784	0.704	–	–	–	–	0.762	0.816	0.874	0.716
NCI-H1563	–	–	–	–	0.454	0.494	0.512	0.495	0.733	0.748	0.747	0.791	–	–	–	–	–	–	–	–
NCI-H1650	0.565	0.563	0.561	0.498	0.167	–	0.19	0.221	0.597	–	0.601	0.647	–	–	–	–	0.535	0.623	0.657	0.676
NCI-H1703	–	–	–	–	–	–	–	–	–	–	–	–	0.155	–	0.113	0.103	–	–	–	–
NCI-H1792	0.436	0.369	0.432	0.379	0.416	0.484	0.368	0.398	0.733	0.695	0.726	0.692	0.734	0.786	0.901	0.77	–	–	–	–
NCI-H2009	0.285	0.294	0.278	0.281	1.05	1.08	1.05	0.893	0.572	0.677	0.649	0.604	–	–	–	–	0.752	0.733	0.746	0.699
NCI-H2023	0.525	0.532	0.555	0.473	0.526	0.751	0.818	0.707	0.406	0.405	0.438	0.398	–	–	–	–	0.727	0.526	0.588	0.572
NCI-H2228	0.576	0.614	0.501	0.581	0.108	0.19	0.229	0.151	0.477	0.724	0.597	0.651	–	–	–	–	0.728	0.682	0.788	0.571
SK-LU-1	0.637	0.453	0.469	0.582	0.214	0.228	0.211	0.203	0.359	0.322	0.382	0.314	–	–	–	–	0.795	0.865	0.757	0.839
SK-MES-1	0.539	0.627	0.56	0.54	0.751	0.88	0.667	0.798	0.596	0.642	0.588	0.537	–	–	–	–	1.16	1.08	1.08	0.986
SW 1573	0.512	0.605	0.534	0.564	0.183	0.248	0.303	0.138	0.639	0.593	0.804	0.521	–	–	–	–	0.764	0.731	1.05	0.76
UMC-11	0.713	0.727	0.675	0.683	1.01	0.953	1.04	1.01	0.443	0.495	0.464	0.472	–	–	–	–	0.332	0.377	0.432	0.398
